# Assay results: patent publication US20190365745A1, “USE OF CHRONIC TREATMENT WITH ATR INHIBITORS TO SENSITIZE CANCER CELLS TO PARP INHIBITORS” (Cornell University, priority 2018, published 2019)
# What was measured:
# Assay type in all cases: cell-based, Human
# U2OS cells [1] = assay: Cycloheximide protein stability western blot; conditions: CHX 50 μg/ml with 5 μM ATRi vs CHX alone
# Procedure: Fresh media containing CHX or CHX/ATRi was added every 6 hours. The right panel is a bar graph generated by measuring the intensity of the BRCA1 band from three independent experiments. Two-tailed Student's t-test was used for the statistics (Error bars=SD, N=3, ****P-value<0.0001).
# Cells were harvested and lysed in modified radioimmunoprecipitation assay (RIPA) buffer (50 mM Tris-HCl pH 7.5, 150 mM NaCl, 1% tergitol, 0.25% sodium deoxycholate, 5 mM EDTA) supplemented with Complete EDTA-free protease inhibitor cocktail (Roche), 1 mM PMSF, 5 mM sodium fluoride, 10 mM β-glycerol-phosphate and 0.4 mM sodium orthovanadate. Whole cell lysates were cleared with 5 minute centrifugation at 13,000 rpm at 4° C. and mixed with 3×SDS sample buffer (bromophenol blue, stacking gel buffer, 50% glycerol, 3% SDS and 60 mM DTT). After being resolved on SDS-PAGE gels, proteins were then transferred onto polyvinylidene difluoride (PVDF) membranes and detected with designated antibodies.
# hTERT RPE-1 cells = assay: DR-GFP assay of HR-mediated repair; conditions: ATRi 8 days vs 2 days
# Procedure: (§1) FIGS. 14A-14B show WB analysis of hTERT RPE-1 (FIG. 14A) or HCT116 (colon cancer)(FIG. 14B) cells after 8 day chronic treatment with 5 μM ATRi or ATMi. […] FIGS. 14D-14E are bar graphs showing the analysis of HR-mediated repair using the DR-GFP system. Relative fold change of GFP positive hTERT RPE-1 (FIG. 14D) or HCT116 (FIG. 14E) cells over DMSO after ATRi treatment. (Error bars=SEM, N≥3, ****P-value<0.0001; one sample-t-test was used for the statistical analysis comparing 2 days versus 8 days of treatment).
# (§2) Human U2OS, HCT116, hTERT RPE-1, HEK293T, HeLa, U87, T98G, A2780, and human skin fibroblast cells (GM08398 and GM18366) were grown in DMEM media supplemented with 10% bovine calf serum, penicillin/streptomycin and non-essential amino acids. […]
# (§3) For the DR-GFP assay, cells (U2OS, HCT116, hTERT RPE-1, HEK293T, HeLa, U87, T98G, A2780, 293-T-REX-E2F6 cells and SV40 large T antigen transformed hTERT RPE-1) were transfected with the mCherry plasmid or DR-GFP reporter plasmid (pDR-GFP; addgene plasmid 26475) together with a plasmid coding for I-SceI (pCBASceI; addgene plasmid 26477) or DR-GFP reporter plasmid together with an empty plasmid pCAGGS. Two days after transfection, cells were trypsinized, resuspended in PBS and then analyzed by flow cytometry using FACSAria Fusion or Accuri C6 cytometer (BD). […]
# [2] = test system: HCT116 colon cancer cell line; assay: DR-GFP assay of HR-mediated repair; conditions: ATRi 8 days vs 2 days
# Procedure: as §1, §2, §3
# [3] = test system: HCT116 (colon cancer) and indicated cancer cell lines; assay: Immunoblotting of HR factor abundance in cancer cell lines; conditions: cancer cells; 5 μM ATRi, 8 days
# Procedure: as §1, §2
# Cells were harvested and lysed in modified radioimmunoprecipitation assay (RIPA) buffer (50 mM Tris-HCl pH 7.5, 150 mM NaCl, 1% tergitol, 0.25% sodium deoxycholate, 5 mM EDTA) supplemented with Complete EDTA-free protease inhibitor cocktail (Roche), 1 mM PMSF, 5 mM sodium fluoride, 10 mM β-glycerol-phosphate and 0.4 mM sodium orthovanadate. […] After being resolved on SDS-PAGE gels, proteins were then transferred onto polyvinylidene difluoride (PVDF) membranes and detected with designated antibodies.
# U2OS cells [4] = assay: Real time PCR of mRNA levels; conditions: normalized to GAPDH
# Text: FIG. 9B is a bar graph showing the analysis of HR-mediated repair using the DR-GFP system. Relative fold change of GFP positive U2OS cells treated with CHK1i compared to DMSO treatment control. (Error bars=SEM, N=4, ****P-value<0.0001; one sample-t-test was used for the statistical analysis). FIGS. 9C-9D show a histogram showing representative FACS data (FIG. 9C) and a bar graph showing quantitation of G1, S and G2/M population for cell cycle analysis of CHK1i treated cells (FIG. 9D) (Error bars=SD, N=3). FIG. 9E are bar graphs showing real time PCR analysis of total RNA extracted from U2OS cells treated with DMSO, ATRi (5 μM for 8 days) or CHK1i (0.2 μM for 5 days). Values were normalized to GAPDH mRNA levels. (Error bars=SD, N=3). FIG. 9F is a schematic diagram showing a proposed model of how E2F transcription is regulated through ATR-CHK1 signaling. […] FIG. 9H is a bar graph showing DR-GFP analysis of 293-T-REX-E2F6 cells after 8 days of treatment with DMSO or doxycycline. (Error bars=SEM, N=4). FIG. 9I is a histogram showing cell cycle analysis of 293-T-REX-E2F6 cells after 8 days of treatment with DMSO or doxycycline. FIG. 9J is a schematic diagram showing a model depicting multiple roles of ATR in the control of HR capacity.
# Cells cultured from 10 cm dish were collected and lysed in 1 ml of TRIzol (Invitrogen). Chloroform was added to the lysed sample to separate RNA. Separated RNA was precipitated by isopropyl alcohol, followed by two washes with 75% ethanol. 1 μg of extracted RNA from each sample was then reverse transcribed with Bio-Rad iScript cDNA synthesis kit. The samples (˜100 ng) were analyzed in a Roche 480 light cycler in a total of 15 μl containing SYBR green mix and primers. The values were calculated using “absolute quantification/2nd derivative max” in lightcycler 480 program and then normalized to the level of GAPDH.
smiles,measurement,setting,value
"CS(=O)(=O)c1ccc(-c2cnc(N)c(C(=O)Nc3ccccc3)n2)cc1 [ATRi, VE-821]",Abundance of the other HR proteins monitored in CHX-treated cells,U2OS cells [1],did not change
same,Protein levels of BRCA1 in CHX-treated cells,U2OS cells [1],decreased
same,"HR-mediated repair efficiency (DR-GFP), chronic vs short-term (2 day) treatment",hTERT RPE-1 cells,did not result in a striking drop in HR-mediated repair efficiency
same,"HR-mediated repair efficiency (DR-GFP), chronic vs short-term treatment",[2],significantly more severe than that of short-term treatment
same,Abundance of BRCA1 (WB),[3],severe reduction in the abundance of BRCA1
same,mRNA levels of BRCA1 and RAD51,U2OS cells [4]; ATRi 5 μM 8 days or CHK1i 0.2 μM 5 days,reduction in the mRNA levels of BRCA1 and RAD51
same,mRNA levels of 53BP1,U2OS cells [4]; ATRi 5 μM 8 days,major changes in the mRNA levels of 53BP1 were not observed
